Here are results for one compound from patent US6407137B2, “Dopamine analog amide” (Protarga, Inc., priority 1988, dated 2002).

A short description of series [1]: Open-field motor activity measurement. The format is in vivo, balb-c mice. As to the method: The effect of compound 8739 on general motor activity was determined. The general motor activity of balb-c mice was measured in a Stoelting electronic activity monitor apparatus during a 90-min period following an intraperitoneal injection of the compound as a solution in 15% propylene glycol in 0.1 M NaHCO3. A detailed description of the apparatus is reported in Stewart R. J., Campbell A., Spark G. and Balessarini R. J. Psychopharmacol. 60, 281 (1979).
The test group (six mice) received an i.p. injection of the drug in a vehicle (15% propylene glycol in 0.1 M NaHCO3, a total volume of between about […].). The six control mice received the same volume of vehicle, but no drug. The results (Shown in FIG. 1,) are expressed as the percent decrease in open field activity for the test group versus the control group. […] The response was dose dependant with higher doses of compound 8739 resulting in a greater decrease in general motor activity.
The effects of the mode of delivery of Compound 8739 (oral vs. i.p.) on the general open-field activity of mice (n=6) was assessed. […] A 40-50% decrease in activity occurred when either delivery method was employed.

In series [2] the test system is D-1 dopamine receptors. The series is described as follows: Dopamine receptor binding assay (D-1).
D-1 dopamine receptors, sequence (P21728 whole entry): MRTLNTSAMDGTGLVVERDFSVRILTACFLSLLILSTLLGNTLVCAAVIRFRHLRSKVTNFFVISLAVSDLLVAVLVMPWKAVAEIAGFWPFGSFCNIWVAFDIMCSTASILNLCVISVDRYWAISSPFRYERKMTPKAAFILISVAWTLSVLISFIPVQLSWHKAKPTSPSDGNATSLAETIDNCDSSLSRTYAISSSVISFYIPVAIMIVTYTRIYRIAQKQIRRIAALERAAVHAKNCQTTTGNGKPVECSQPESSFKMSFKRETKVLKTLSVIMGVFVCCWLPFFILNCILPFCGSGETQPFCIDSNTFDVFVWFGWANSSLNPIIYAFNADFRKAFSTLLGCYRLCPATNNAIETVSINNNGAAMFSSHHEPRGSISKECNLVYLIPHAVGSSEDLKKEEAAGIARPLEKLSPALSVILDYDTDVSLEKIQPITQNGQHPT
The nature of series [3]: Swelling of the brain. The text has this:
Another favorable property of compound 8739 was unexpected. […] Chan, P. H., Fishman, R. A., SCIENCE, Vol. 20, 358-360 (1978).

A short description of series [4]: Test for tolerance: food consumption during long-term administration. In kind it is in vivo, mice. Particulars: 20 mg/kg i.p. daily for 21 days, food intake. As for the experimental part: The effect of long-term administration of compound 8739 on the pattern of food consumption of mice was compared to the long-term effects of the administration of amphetamine. Daily i.p. injections of compound 8739 (20 mg/kg) were given to test animals and daily i.p. injections of amphetamine (2 mg/kg) were given to control animals for 21 days. 24 hours after the first injection and about every five days after that, the animals were food-deprived for 24 hours with water freely available, and then were tested for food consumption for one-hour beginning at five minutes after receiving their daily injection.
FIG. 4 plots the percent decrease in food consumption versus time.

Entries after “also recorded” stand apart in the source; their conditions may differ.

Consider `CC/C=C\C/C=C\C/C=C\C/C=C\C/C=C\C/C=C\CCC(=O)NCCc1ccc(O)c(O)c1` [Compound 8739], for which the “percent decrease in open field activity, test group versus control group” value in series [1] (i.p. injection, mice, 90-min period) is 40-50%. Moreover, in series [1] (oral delivery, mice n=6), the “decrease in open-field activity” value is reported as 40-50%. In addition, the “activity when given orally compared with injection” value in series [1] (oral vs. i.p.) is “as active when ingested as when injected; also recorded: without any apparent loss in efficacy”. Besides, the “binding to D-1 dopamine receptors” value in series [2] was “does not bind”. Besides, the “swelling of the brain” value in series [3] is on record as “did not induce any swelling”. Moreover, the tolerance result in series [4] is reported as “no tolerance had developed”.
